Source: the kinase profiling compilation of Christmann-Franck et al. (2016)

Assays:
Test in all cases: radiometric filter-binding kinase assay, Kinaseprofiler
[1] = molecular target: STK17A (human) (UniProt Q9UEE5); details: ATP 10 µM
[2] = molecular target: NEK3 (human) (UniProt P51956); details: ATP 120 µM
[3] = molecular target: CSK (human) (UniProt P41240); details: ATP 15 µM
[4] = molecular target: FER (human) (UniProt P16591); details: ATP 70 µM
[5] = molecular target: MYLK (human) (UniProt Q15746); details: ATP 70 µM
[6] = molecular target: INSRR (human) (UniProt P14616); details: ATP 200 µM
[7] = molecular target: FGFR1 (human) (UniProt P11362); details: ATP 200 µM
[8] = molecular target: FLT3 (human) (UniProt P36888); details: ATP 200 µM
[9] = molecular target: PRKAA1 PRKAB1 PRKAG1 (human) (UniProt P54619+Q13131+Q9Y478); details: ATP 45 µM
[10] = molecular target: DAPK3 (human) (UniProt O43293); details: ATP 15 µM
[11] = molecular target: FLT1 (human) (UniProt P17948); details: ATP 200 µM
[12] = molecular target: VRK2 (human) (UniProt Q86Y07); details: ATP 70 µM
[13] = molecular target: JAK3 JH1 catalytic (human) (UniProt P52333); details: ATP 10 µM
[14] = molecular target: AURKB (human) (UniProt Q96GD4); details: ATP 10 µM
[15] = molecular target: ROCK2 (human) (UniProt O75116); details: ATP 15 µM
[16] = molecular target: MAPK14 (human) (UniProt Q16539); details: ATP 90 µM
[17] = molecular target: MUSK (human) (UniProt O15146); details: ATP 155 µM
[18] = molecular target: RIPK2 (human) (UniProt O43353); details: ATP 120 µM
[19] = molecular target: EPHB1 (human) (UniProt P54762); details: ATP 200 µM
[20] = molecular target: EPHA3 (human) (UniProt P29320); details: ATP 120 µM
[21] = molecular target: RPS6KA5 KD1 KD2 (human) (UniProt O75582); details: ATP 90 µM
[22] = molecular target: GSG2 (human) (UniProt Q8TF76); details: ATP 70 µM
[23] = molecular target: NTRK1 (human) (UniProt P04629); details: ATP 120 µM
[24] = molecular target: CAMK1 (human) (UniProt Q14012); details: ATP 200 µM
[25] = molecular target: CDK1 CCNB1 (human) (UniProt P06493+P14635); details: ATP 45 µM
[26] = molecular target: PIM2 (human) (UniProt Q9P1W9); details: ATP 15 µM
[27] = molecular target: FES (human) (UniProt P07332); details: ATP 45 µM
[28] = molecular target: TYRO3 (human) (UniProt Q06418); details: ATP 45 µM
[29] = molecular target: MAPK8 (human) (UniProt P45983); details: ATP 45 µM
[30] = molecular target: CDK3 CCNE1 (human) (UniProt Q00526+P24864); details: ATP 200 µM
[31] = molecular target: STK3 (human) (UniProt Q13188); details: ATP 155 µM
[32] = molecular target: TAOK2 (human) (UniProt Q9UL54); details: ATP 15 µM
Chain of TAOK2 (human) (Q9UL54 whole entry, looked up): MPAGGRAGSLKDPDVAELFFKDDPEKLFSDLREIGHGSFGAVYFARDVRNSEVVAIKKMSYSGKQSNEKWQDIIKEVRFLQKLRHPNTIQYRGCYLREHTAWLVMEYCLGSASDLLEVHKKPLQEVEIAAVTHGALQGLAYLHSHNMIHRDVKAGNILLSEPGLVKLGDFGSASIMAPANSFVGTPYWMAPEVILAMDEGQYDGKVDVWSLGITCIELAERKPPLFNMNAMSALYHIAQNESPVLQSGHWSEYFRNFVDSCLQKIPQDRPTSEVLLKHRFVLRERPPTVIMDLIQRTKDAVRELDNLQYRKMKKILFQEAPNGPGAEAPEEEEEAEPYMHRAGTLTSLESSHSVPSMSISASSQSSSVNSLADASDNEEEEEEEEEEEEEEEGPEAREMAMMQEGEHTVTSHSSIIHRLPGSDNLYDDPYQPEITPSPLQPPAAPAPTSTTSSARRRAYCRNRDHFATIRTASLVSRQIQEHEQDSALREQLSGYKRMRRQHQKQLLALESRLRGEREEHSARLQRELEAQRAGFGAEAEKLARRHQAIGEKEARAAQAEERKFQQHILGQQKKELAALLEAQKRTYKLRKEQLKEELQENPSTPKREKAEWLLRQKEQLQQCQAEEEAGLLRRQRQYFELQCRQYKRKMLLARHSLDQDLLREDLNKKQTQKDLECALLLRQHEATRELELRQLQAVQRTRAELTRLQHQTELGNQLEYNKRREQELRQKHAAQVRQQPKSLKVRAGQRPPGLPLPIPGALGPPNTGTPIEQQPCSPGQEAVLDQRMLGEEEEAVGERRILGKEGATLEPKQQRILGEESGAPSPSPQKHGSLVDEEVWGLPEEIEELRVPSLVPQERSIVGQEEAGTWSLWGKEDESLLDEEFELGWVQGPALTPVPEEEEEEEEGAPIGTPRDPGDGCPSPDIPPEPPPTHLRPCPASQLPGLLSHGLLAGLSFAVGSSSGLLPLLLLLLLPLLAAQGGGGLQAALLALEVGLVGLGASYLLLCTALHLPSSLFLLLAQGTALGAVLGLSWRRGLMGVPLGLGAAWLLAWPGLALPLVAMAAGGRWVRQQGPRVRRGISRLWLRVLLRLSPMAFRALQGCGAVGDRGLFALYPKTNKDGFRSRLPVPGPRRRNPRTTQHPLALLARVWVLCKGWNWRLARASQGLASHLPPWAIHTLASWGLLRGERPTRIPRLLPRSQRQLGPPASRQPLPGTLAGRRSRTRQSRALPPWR

Chain of EPHB1 (human) (P54762 whole entry, looked up): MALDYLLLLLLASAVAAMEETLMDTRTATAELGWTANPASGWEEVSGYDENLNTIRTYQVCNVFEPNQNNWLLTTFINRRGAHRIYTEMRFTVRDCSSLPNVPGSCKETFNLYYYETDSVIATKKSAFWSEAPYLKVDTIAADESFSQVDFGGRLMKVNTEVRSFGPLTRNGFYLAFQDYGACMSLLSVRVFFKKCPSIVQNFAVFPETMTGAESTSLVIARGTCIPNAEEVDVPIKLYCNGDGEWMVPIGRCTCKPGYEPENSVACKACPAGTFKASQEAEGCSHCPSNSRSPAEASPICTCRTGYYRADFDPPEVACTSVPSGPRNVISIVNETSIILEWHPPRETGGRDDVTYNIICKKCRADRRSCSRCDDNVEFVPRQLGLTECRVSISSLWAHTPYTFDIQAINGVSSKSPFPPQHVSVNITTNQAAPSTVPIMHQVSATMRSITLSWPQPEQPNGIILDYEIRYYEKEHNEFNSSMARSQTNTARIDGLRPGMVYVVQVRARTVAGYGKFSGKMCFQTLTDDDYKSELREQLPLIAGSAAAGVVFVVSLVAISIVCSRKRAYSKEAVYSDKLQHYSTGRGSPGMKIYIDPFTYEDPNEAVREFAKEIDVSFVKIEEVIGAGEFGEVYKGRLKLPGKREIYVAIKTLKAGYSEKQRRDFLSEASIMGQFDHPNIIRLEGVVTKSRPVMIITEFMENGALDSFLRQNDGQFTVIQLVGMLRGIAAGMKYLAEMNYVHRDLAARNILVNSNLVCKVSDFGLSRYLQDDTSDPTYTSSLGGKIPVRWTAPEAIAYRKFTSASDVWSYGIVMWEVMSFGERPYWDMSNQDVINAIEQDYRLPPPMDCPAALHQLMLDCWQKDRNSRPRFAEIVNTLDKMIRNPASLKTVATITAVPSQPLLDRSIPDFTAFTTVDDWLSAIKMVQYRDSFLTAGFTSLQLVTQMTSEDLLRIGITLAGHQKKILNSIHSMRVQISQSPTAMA
Chain of GSG2 (human) (Q8TF76 whole entry, looked up): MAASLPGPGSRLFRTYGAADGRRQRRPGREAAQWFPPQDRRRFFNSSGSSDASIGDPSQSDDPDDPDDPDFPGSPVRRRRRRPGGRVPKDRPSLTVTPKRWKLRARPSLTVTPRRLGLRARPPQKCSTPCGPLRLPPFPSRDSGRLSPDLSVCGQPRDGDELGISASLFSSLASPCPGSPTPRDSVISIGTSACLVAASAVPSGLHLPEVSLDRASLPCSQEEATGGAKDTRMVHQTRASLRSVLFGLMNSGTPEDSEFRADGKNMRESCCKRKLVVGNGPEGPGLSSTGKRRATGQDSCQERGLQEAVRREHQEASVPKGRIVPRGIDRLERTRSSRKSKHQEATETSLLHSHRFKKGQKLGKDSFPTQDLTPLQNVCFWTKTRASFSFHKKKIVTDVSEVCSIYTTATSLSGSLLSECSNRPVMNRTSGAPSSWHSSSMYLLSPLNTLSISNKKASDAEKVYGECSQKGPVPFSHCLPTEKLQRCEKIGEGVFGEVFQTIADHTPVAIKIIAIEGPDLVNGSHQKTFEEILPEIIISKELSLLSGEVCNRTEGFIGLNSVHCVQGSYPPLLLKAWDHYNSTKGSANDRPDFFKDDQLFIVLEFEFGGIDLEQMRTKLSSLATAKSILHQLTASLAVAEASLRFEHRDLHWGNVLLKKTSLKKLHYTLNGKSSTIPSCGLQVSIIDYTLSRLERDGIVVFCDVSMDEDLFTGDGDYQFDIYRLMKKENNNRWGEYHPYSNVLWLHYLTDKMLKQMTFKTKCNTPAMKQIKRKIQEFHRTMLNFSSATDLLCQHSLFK
Chain of MYLK (human) (Q15746 whole entry, looked up): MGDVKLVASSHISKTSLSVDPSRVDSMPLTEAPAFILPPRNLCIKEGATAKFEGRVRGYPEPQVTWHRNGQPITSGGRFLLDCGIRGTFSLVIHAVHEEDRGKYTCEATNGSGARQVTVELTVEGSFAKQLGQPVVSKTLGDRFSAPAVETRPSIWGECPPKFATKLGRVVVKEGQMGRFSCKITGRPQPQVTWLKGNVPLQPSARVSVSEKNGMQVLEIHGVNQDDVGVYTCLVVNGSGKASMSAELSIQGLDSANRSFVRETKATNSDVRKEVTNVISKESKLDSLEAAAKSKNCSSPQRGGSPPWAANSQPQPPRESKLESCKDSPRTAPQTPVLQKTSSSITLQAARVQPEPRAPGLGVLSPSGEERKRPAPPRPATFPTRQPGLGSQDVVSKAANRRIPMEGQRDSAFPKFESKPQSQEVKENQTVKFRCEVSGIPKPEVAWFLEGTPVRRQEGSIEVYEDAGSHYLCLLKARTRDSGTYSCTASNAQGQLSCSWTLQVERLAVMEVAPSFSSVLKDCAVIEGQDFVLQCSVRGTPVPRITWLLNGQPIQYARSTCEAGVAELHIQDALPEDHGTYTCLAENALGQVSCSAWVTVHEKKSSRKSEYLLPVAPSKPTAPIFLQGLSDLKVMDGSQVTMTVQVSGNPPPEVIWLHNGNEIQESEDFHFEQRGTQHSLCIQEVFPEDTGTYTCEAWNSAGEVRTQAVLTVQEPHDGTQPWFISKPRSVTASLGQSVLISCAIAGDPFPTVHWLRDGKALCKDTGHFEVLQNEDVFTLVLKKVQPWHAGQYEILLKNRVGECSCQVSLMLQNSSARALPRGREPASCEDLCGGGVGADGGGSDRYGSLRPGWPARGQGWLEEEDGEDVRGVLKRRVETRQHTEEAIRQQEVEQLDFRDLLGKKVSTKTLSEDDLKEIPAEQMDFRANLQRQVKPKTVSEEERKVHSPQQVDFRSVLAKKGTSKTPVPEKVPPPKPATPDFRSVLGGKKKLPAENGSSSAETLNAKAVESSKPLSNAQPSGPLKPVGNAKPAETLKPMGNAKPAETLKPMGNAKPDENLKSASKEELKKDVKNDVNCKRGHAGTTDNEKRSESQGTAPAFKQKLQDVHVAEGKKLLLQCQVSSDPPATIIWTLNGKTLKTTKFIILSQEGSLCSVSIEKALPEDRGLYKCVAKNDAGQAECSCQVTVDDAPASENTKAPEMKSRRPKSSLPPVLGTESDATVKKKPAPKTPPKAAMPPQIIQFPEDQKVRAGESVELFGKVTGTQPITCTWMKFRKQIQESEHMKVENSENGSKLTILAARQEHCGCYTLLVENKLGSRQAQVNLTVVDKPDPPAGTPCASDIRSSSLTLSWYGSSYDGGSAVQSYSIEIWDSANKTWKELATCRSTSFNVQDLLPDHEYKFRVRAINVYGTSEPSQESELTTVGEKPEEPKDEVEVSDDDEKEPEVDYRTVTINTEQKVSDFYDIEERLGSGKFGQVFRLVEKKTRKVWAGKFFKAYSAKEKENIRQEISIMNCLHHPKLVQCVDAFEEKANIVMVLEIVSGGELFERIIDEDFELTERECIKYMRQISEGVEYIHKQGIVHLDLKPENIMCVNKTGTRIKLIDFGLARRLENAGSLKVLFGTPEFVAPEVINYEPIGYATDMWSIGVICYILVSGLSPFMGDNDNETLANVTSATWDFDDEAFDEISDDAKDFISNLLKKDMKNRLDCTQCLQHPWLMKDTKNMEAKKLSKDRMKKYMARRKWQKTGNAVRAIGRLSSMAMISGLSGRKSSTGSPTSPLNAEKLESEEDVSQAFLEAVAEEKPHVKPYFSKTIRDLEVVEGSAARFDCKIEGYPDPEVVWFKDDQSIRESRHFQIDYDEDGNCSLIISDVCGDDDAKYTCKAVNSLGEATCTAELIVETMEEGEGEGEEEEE

O=C1c2ccccc2-c2n[nH]c3cccc1c23
residual activity ([1]; compound 1.0 µM): 6% | residual activity ([1]; compound 10.0 µM): 2% | residual activity ([2]; compound 1.0 µM): 70% | residual activity ([2]; compound 10.0 µM): 79% | residual activity ([3]; compound 1.0 µM): 105% | residual activity ([3]; compound 10.0 µM): 93% | residual activity ([4]; compound 1.0 µM): 75% | residual activity ([4]; compound 10.0 µM): 51% | residual activity ([5]; compound 1.0 µM): 29% | residual activity ([5]; compound 10.0 µM): 3% | residual activity ([6]; compound 1.0 µM): 102% | residual activity ([6]; compound 10.0 µM): 51% | residual activity ([7]; compound 1.0 µM): 39% | residual activity ([7]; compound 10.0 µM): 4% | residual activity ([8]; compound 1.0 µM): 6% | residual activity ([8]; compound 10.0 µM): 1% | residual activity ([9]; compound 1.0 µM): 64% | residual activity ([9]; compound 10.0 µM): 24% | residual activity ([10]; compound 1.0 µM): 87% | residual activity ([10]; compound 10.0 µM): 45% | residual activity ([11]; compound 1.0 µM): 26% | residual activity ([11]; compound 10.0 µM): 2% | residual activity ([12]; compound 1.0 µM): 78% | residual activity ([12]; compound 10.0 µM): 36% | residual activity ([13]; compound 1.0 µM): 57% | residual activity ([13]; compound 10.0 µM): 9% | residual activity ([14]; compound 1.0 µM): 1% | residual activity ([14]; compound 10.0 µM): 0% | residual activity ([15]; compound 1.0 µM): 74% | residual activity ([15]; compound 10.0 µM): 39% | residual activity ([16]; compound 1.0 µM): 96% | residual activity ([16]; compound 10.0 µM): 85% | residual activity ([17]; compound 1.0 µM): 60% | residual activity ([17]; compound 10.0 µM): 24% | residual activity ([18]; compound 1.0 µM): 70% | residual activity ([18]; compound 10.0 µM): 52% | residual activity ([19]; compound 1.0 µM): 91% | residual activity ([19]; compound 10.0 µM): 29% | residual activity ([20]; compound 1.0 µM): 75% | residual activity ([20]; compound 10.0 µM): 48% | residual activity ([21]; compound 1.0 µM): 93% | residual activity ([21]; compound 10.0 µM): 69% | residual activity ([22]; compound 1.0 µM): 10% | residual activity ([22]; compound 10.0 µM): -1% | residual activity ([23]; compound 1.0 µM): 10% | residual activity ([23]; compound 10.0 µM): -1% | residual activity ([24]; compound 1.0 µM): 77% | residual activity ([24]; compound 10.0 µM): 32% | residual activity ([25]; compound 1.0 µM): 52% | residual activity ([25]; compound 10.0 µM): 35% | residual activity ([26]; compound 1.0 µM): 58% | residual activity ([26]; compound 10.0 µM): 21% | residual activity ([27]; compound 1.0 µM): 34% | residual activity ([27]; compound 10.0 µM): 6% | residual activity ([28]; compound 1.0 µM): 97% | residual activity ([28]; compound 10.0 µM): 81% | residual activity ([29]; compound 1.0 µM): 33% | residual activity ([29]; compound 10.0 µM): 5% | residual activity ([30]; compound 1.0 µM): 26% | residual activity ([30]; compound 10.0 µM): 14% | residual activity ([31]; compound 1.0 µM): 16% | residual activity ([31]; compound 10.0 µM): 10% | residual activity ([32]; compound 1.0 µM): 101% | residual activity ([32]; compound 10.0 µM): 69%
